Here are results for one compound from US20220364056A1, “SHORT-CHAIN FATTY ACID PENTANOATE AS ENHANCER FOR CELLULAR THERAPY AND ANTI-TUMOR THERAPY” (PHILIPPS-UNIVERSITÄT MARBURG, priority 2019, published 2022).

One assay concerns human CAR T cells. The experiment in a line: human ROR1-specific CAR T cells pretreated, then co-cultured with ROR1-expressing K562 cells. It counts as cell-based. The text has this: We next investigated the impact of SCFAs on human CD8^+ T lymphocytes and CAR T cells.
(A) CD8^+ T cells isolated from peripheral blood of healthy donors were differentiated into CTLs in presence or absence of indicated HDACi. Representative contour plots and dot plots indicate the frequency of TNF-α+ and IFN-γ^+ cells. Data points in the graphs represent individual donors (n=4, performed in 4 independent experiments) (B-G) Phenotyping of pentanoate-treated ROR1-specific CD8^+ CAR T cells (CARROR1 T cells). (B) Experimental setup for the functional analysis is shown. (C) The cytokine secretion (IFN-γ and TNF-α) was analysed in supernatants of pentanoate-treated CARROR1 T cells by ELISA. (D) The surface expression of CD25 was measured by flow cytometry. (E) The secretion of IL-2 was detected in supernatants of CARROR1 T cells by ELISA. (F) Proliferation of CARROR1 T cells was determined by CFSE labelling. CARROR1 T cells pre-treated with pentanoate were stained with CFSE and subsequently co-cultured with […] cells in the absence of pentanoate. CD8^+ T cells without the CAR construct were used as mock control cells. (G) The cytolytic activity of CARROR1 T cells was examined by analysis of specific lysis following encounter with luciferase-expressing […] cells. The percentage of lysed target cells was determined in 1 hour intervals (effector-to-target cell (E:T) ratio=2.5:1). Data points shown in the graphs (C-G) represent CARROR1 T cells derived from three different donors. Following pentanoate pre-treatment, the stimulation was mediated by co-culture of CD8^+ CARROR1 T cells with ROR1-expressing K652 ([…]) cells in the absence of pentanoate.

Assay [1] concerns promoter region of Ifnγ, Tbx21 and Eomes. Description: pan-H4Ac ChIP at CTL-characteristic loci. It counts as cell-based, mice. The settings on record: 24 hours of treatment. The protocol: (A) Experimental design for the treatment of CTLs with the water-soluble fraction of intestinal content derived from SPF or GF mice. (B and C) Frequencies of IFN-γ- and TNF-α-producing CTLs treated with the extract from luminal content derived from indicated organs. Representative results of two experiments are shown (n=3). (D) ELISA was performed to measure the secretion of TNF-α by CLTs treated as shown in (A). (E) Quantitative measurement of total SCFA amounts in fecal samples of SPF and GF mice (n=5). (F and G) The percentage of IFN-γ^+ TNF-α^+ CTLs treated with the indicated SCFAs for three days (n=3, one of three independent experiments is shown). (H) The secretion of TNF-α from CTLs treated with SCFAs was determined by ELISA (n=3, one of two independent experiments is shown). (I) The fluorogenic HDAC assay was applied to measure the HDAC inhibitory activity of SCFAs on CTLs. The value for unstimulated CTLs was arbitrarily set to 1.0. Four independent experiments were performed. (J and K) Representative contour plots (J) and bar graphs (K) showing the frequency of IFN-γ+ and TNF-α+ cells after pentanoate (2 mM) or VPA (0.5 mM) administration. Three similar experiments were performed. (L and M) The frequency of Eomes- and T-bet-expressing CTLs treated with pentanoate (2 mM) or VPA (0.5 mM) for three days was analyzed by flow cytometry (n=4). […]

Another assay concerns Tc9 and Tc17 cells. The experiment in a line: CD8+ T cells polarized under Tc17- or Tc9-inducing conditions. It counts as cell-based, murine. The settings on record: 3 days. The method, then:
(A and B) CD8^+ T cells isolated from spleens and LNs were polarized under Tc17-inducing conditions and treated with pentanoate for 3 days. Representative contour plots (A) and bar graphs (B) indicate the frequency of IL-17^+ and IFN-γ+ cells. Three similar experiments were performed. (C and D) CD8^+ T cells isolated from spleens and LNs were polarized under Tc9-inducing conditions and treated with pentanoate for 3 days. Representative contour plots (C) and bar graphs (D) are showing the frequency of IL-9^+ and IFN-γ+ cells. Three similar experiments were performed. (E and F) The expression of granzyme B, IFN-γ and Eomes in pentanoate-treated human CTLs was analysed by flow cytometry. Five independent experiments were performed (E). For Eomes, mean fluorescence intensity (MFI) values are shown (F, n=3).

The test system of a further assay is histones H3 and H4. The experiment in a line: Western blot of H3Ac and H4Ac in CD8+ T cells. It counts as cell-based, murine. The settings on record: SCFAs for 3 days. The method, then: Representative histogram plots (A) and bar graphs (B) are showing the frequency of Annexin V^+ cells. Three similar experiments were performed. (C) Representative effector molecule staining of CD8^+ T cells polarized under suboptimal CTL-inducing conditions, treated with pentanoate or TSA (10 nM Sigma-Aldrich) in presence of 2-DG (1 mM, Sigma-Aldrich) or rapamycin (100 nM, Sigma-Aldrich) for 3 days. Three independent experiments were performed. (D) Western blot analysis of H3Ac and H4Ac in CD8^+ T cells treated with SCFAs for 3 days. (E) Pan-H4Ac ChIP qPCR analysis for Tbx21 promoter accessibility in pentanoate-treated CTLs. Data are from pooled chromatin of three mice. (F and G) CD8^+ T cells isolated from WT and Tbx21^−/− mice were polarized under suboptimal CTL-inducing conditions in presence of increasing pentanoate concentrations. Representative contour plots (F) and bar graphs (G) show the frequency of IFN-γ+ and IL-17A^+ cells. Two similar experiments were performed.

`CCCCC(=O)O` [pentanoate]: the “proliferation of CAR T cells” value with human CAR T cells (CFSE labelling, vs control CAR T cells) is “proliferated stronger”. Besides, the “expression of CD25” value in the assay with human CAR T cells (pretreated 4 days) is recorded as “upregulated”. Further, in the assay on human CAR T cells (pretreated 4 days, ELISA), the “production of IFN-γ and TNF-α” value was “elevated the production”; the “secretion of IL-2” value is given as “upregulated”. The cytolytic activity result with human CAR T cells (specific lysis, E:T ratio 2.5:1) is recorded as “superior cytolytic activity”. Moreover, in assay [1], the “H4 acetylation at the promoter region of Ifnγ, Tbx21 and Eomes” value is recorded as “enhance H4 acetylation”. For the same compound, the “phenotype of Tc9 and Tc17 cells” value in the assay with Tc9 and Tc17 cells is recorded as “phenotypical switch towards IFN-γ-producing CTLs”. The “acetylation of histones H3 and H4” value with histones H3 and H4 was “increased acetylation”.
